Laboratory results from US20120082976A1, “METHOD OF SCREENING FOR INSULIN SECRETION-POTENTIATING AGENTS” (KOBE UNIVERSITY, priority 2009, published 2012).

Tests used:
Rap1 [1] = assay: GTP-RAP1 pull-down assay in Epac2-lacking pancreatic beta-cells transformed with mouse Epac2 expression vector; assay type: cell-based
Description: (§1) Pancreatic beta-cells lacking Epac2 were obtained according to the technique disclosed in Shibasaki T. et al. Proc. Natl. Acad. Sci. USA 104, 19333-9 (2007), by isolating from the mice which were bred after crossing Epac2-lacking mice with IT6 mice, in which SV40 large T […] is expressed under the control of human insulin gene promoter. The method for preparing IT6 mice is described in Miyazaki J, et al., Endocrinology, 127, 126-132 (1990). Further, MIN6 cells were prepared by the technique disclosed in Japanese patent application publication No. 2002-125661.
(§2) GTP-RAP1 pull-down assay was performed according to the method described in Shibasaki T. et al. Proc. Natl. Acad. Sci. USA 104, 19333-9 (2007). Namely, MIN6 cells which had been let stand for 30 minutes in HEPES-KRB buffer in advance were cultured for further 15 minutes in HEPES-KRB buffer containing an agent of interest and 2.8 mM glucose. Then, the cells were fractured, and to the cell lysate thus obtained was added glutathione resin which carried GST-Ra1GDS-RID bound to it (SIGMA). After 90 minutes of incubation at 4 deg C., the resin was separated by centrifugation, washed several times with HEPES-KRB buffer, and subjected to SDS-PAGE gel electrophoresis. After the SDS-PAGE gel electrophoresis, Western blotting was carried to transfer the protein onto PVDF membrane, and Rap1 transferred on the membrane was detected with anti-Rap1 antibody (Santa Cruz Biotechnology, Inc., USA).

Rap1 [2] = assay: GTP-RAP1 pull-down assay in Epac2-lacking pancreatic beta-cells; assay type: cell-based, mouse
Description: as §1, §2
Then, using Epac2-lacking pancreatic beta-cells, examination was performed as to whether Rap1 was activated by SU agents. Activation of Rap1 was measured by determining the amount of GTP-bound Rap1 using GTP-RAP1 pull-down assay.

[3] = molecular target: T1, fluorescent-labeled mouse Epac2 (Mus musculus, UniProt Q9EQZ6); assay: FRET dynamic analysis of fluorescent-labeled mouse Epac2 in COS-1 cells; assay type: cell-based; set-up: expressed in transfected cells; host or cells: COS-1 cells (A1); conditions: COS-1 cells that did not express SUR1, in the presence of SU agent
T1 sequence (Q9EQZ6 1-1011): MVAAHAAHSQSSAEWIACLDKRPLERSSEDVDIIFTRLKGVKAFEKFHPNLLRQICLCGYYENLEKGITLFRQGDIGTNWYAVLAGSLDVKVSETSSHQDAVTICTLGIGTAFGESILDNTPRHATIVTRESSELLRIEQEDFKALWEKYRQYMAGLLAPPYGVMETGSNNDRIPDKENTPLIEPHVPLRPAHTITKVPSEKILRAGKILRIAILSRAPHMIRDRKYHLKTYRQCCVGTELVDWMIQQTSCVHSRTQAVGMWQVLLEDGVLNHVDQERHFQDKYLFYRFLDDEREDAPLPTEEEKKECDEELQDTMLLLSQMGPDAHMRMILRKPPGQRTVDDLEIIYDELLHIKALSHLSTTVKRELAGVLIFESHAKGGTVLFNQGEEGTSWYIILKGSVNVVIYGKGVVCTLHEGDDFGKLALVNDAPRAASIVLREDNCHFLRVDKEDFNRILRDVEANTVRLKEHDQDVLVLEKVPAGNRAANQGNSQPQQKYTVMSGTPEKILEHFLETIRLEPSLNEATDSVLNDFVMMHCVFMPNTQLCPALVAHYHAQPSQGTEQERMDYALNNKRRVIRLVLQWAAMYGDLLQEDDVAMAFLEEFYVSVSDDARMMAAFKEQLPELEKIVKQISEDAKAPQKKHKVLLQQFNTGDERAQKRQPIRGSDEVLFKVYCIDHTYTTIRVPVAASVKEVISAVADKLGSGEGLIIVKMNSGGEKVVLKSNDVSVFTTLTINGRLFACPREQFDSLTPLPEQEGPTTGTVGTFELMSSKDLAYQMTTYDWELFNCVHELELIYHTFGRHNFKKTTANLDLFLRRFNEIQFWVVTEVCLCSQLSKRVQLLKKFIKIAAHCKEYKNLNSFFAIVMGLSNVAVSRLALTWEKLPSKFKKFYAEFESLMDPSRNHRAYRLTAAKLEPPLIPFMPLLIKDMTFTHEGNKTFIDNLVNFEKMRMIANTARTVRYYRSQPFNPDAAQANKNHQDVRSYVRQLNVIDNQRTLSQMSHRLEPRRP
Description: Two days before the day for measurement, the cells were transformed with fluorescent-labeled mouse Epac2 expression vector and then cultured. On the day before the day for measurement, the cells were transferred onto the glass culture dishes of 25 mm in diameter, and culture was continued. About 48 hours after the transformation, the culture medium was replaced with HEPES-KRB buffer (HEPES buffer containing 133.4 mM NaCl, 4.7 mM KCl, 1.2 mM KH2PO4, 1.2 mM MgSO4, 2.5 mM CaCl2, 5.0 mM NaHCO3, 2.8 mM glucose, and 0.2% BSA (pH 7.4)). The cells were observed through a confocal microscope (FV1000, Olympus Corporation) equipped with the UPlanSApo objective lens (100*oil/1.40 NA) to set the focus of the lens on the cells, and excitation light with the wavelength of 440 nm was irradiated using 440 nm LD laser (FV5-LDPSU, Olympus Corporation) at the power of 0.5%. Fluorescent light emitted from thus excited fluorescent-labeled mouse Epac2 was observed through two fluorescence filters, 480DF30 (for 480 nm light) and 535DF25 (for 535 nm light) as dual images of the fluorescent light every 5 seconds for dynamic analysis of the emitted fluorescent light. The results of the dynamic analysis, after first calculating the ratio R in intensity of fluorescence at 535 nm to 480 nm at each measurement (ratio of intensity at 535 nm/intensity at 480 nm), were expressed in the value which was derived by dividing the ratio by the initial value R0 (ratio of intensity at 535 nm/intensity at 480 nm before addition of an agent), i.e., R/R0. All the observation was carried out at room temperature.

Rap1 [4] = assay: GTP-RAP1 pull-down assay in MIN6 cells; assay type: cell-based
Description: as §2
Epac2 has the GEF activity and activates Rap1 by converting it to GTP-bound Rap1 through its binding to […]. This reaction constitute part of signal transmission for insulin secretion in beta-cells. Thus, it was examined whether or not Rap1 is activated with SU agents, using MIN6 cells, which originate from beta-cells. Activation of Rap1 was measured by determining GTP-bound Rap1, using GTP-RAP1 pull-down assay.

[5] = molecular target: T1, fluorescent-labeled mouse Epac2; assay: FRET dynamic analysis of fluorescent-labeled mouse Epac2 in MIN6 cells; assay type: cell-based; set-up: expressed in transfected cells; host or cells: MIN6 cells (A3); conditions: in the presence of SU agent
Description: All the observation was carried out at room temperature.

pancreatic islets = assay: Insulin secretion experiment, pancreatic islets of wild-type and Epac2-lacking mice; assay type: cell-based, mouse
Description: Mouse pancreatic beta-cells were isolated from wild-type mice (C57BL/6) or Epac2-lacking mice, and cultured for two days. The mouse pancreatic beta-cells were let stand in HEPES-KRB buffer containing 2.8 mM glucose for 30 minutes. The cells then were dispensed to […] in such a manner that five pancreatic islets of a like size were contained in each well, and cultured for 15 minutes in 100 micro L HEPES-KRB buffer containing an agent of interest and 2.8 mM glucose. The amount of insulin released in the medium and that in the cells were measured using an insulin assay kit (Medical Biological Laboratories Co. Ltd.). The amount of secreted insulin was normalized by the amount of insulin in the cells.
The effect of SU agents on insulin secretion via Epac2 was examined in an insulin secretion experiment using pancreatic islets. First, pancreatic islets obtained from wild-type mice and Epac2-lacking mice were stimulated with glucose, and the amount of secreted insulin was determined.

mouse Epac2 = molecular target: T2, mouse Epac2 (Mus musculus, UniProt Q9EQZ6); assay: Sulfonylurea binding experiment with tritium-labeled glibenclamide in COS-1 cells transformed with mouse Epac2 expression vector
T2 construct: expressed in transfected cells; host or cells: COS-1 cells
T2 sequence (Q9EQZ6 1-1011): T1 sequence (Q9EQZ6 1-1011)
Excerpt: COS1 cells were transformed with mouse Epac2 expression vector. […] The membrane was washed four times with the same buffer which had been ice cooled, and then measured for radioactivity on a liquid scintillation counter.

[6] = clinical report (Non-patent document 19); cited from earlier work
[7] = Oral glucose tolerance test in wild-type and Epac2-lacking mice; assay type: in vivo, mouse; conditions: oral 1.5 g/kg glucose plus 100 mg/kg tolbutamide
Description: Peripheral blood was sampled at a predetermined point of time, and serum insulin concentration and blood glucose concentration were measured with an ELISA kit (mftd. by Morinaga) and Antisense III glucose analysis device (Bayer Yakuhin, Ltd.), respectively.
Next, glucose was administered together with tolbutamide, and measurement was conducted in the same manner.

[8] = concentration-dependent, 15 minutes, 2.8 mM glucose

Row | SMILES | change in R/R0 value (FRET) [3] | IC50 (mouse Epac2) | activation of Rap1 (Rap1 [1]) | activation of Rap1 (Rap1 [2]) | amount of GTP-bound Rap1 (activation of Rap1) (Rap1 [4]; [8]) | change in R/R0 value (FRET) [5] | insulin secretion, islets from Epac2-lacking mice compared with wild-type mice (pancreatic islets; 10 nM) | amount of GTP-bound Rap1 (activation of Rap1) (Rap1 [4]; concentrations higher than 100 nM) | glycemic control in a patient with neonatal diabetes [6] | insulin secretion, islets from Epac2-lacking mice compared with wild-type mice (pancreatic islets; 100 nM) | blood glucose concentration, Epac2-lacking mice compared with wild-type mice [7] | serum insulin concentration, Epac2-lacking mice compared with wild-type mice [7]
1 | CCCNC(=O)NS(=O)(=O)c1ccc(Cl)cc1 [chlorpropamide] | decrease in R/R0 | – | found to activate Rap1 | activated no Rapt | increase the amount of GTP-bound Rap1 | – | – | – | – | – | – | –
2 | Cc1ccc(S(=O)(=O)NC(=O)NN2CC3CCCC3C2)cc1 (stereo not shown) [gliclazide] | no change in R/R0 value | – | – | – | no effect on the amount of GTP-bound Rap1 | – | no significant difference | – | not effective | – | – | –
3 | CC(C)[C@H]1CC[C@H](C(=O)N[C@H](Cc2ccccc2)C(=O)O)CC1 [nateglinide] | no change in R/R0 value | – | did not activate Rap1 | – | – | – | – | – | – | – | – | –
4 | CCCCNC(=O)NS(=O)(=O)c1ccc(C)cc1 [tolbutamide] | decrease in R/R0 | 240 µM | found to activate Rap1 | activated no Rapt | – | concentration-dependent decrease in R/R0 value | – | – | – | markedly low insulin secretion | high in the Epac2-lacking mice compared with the wild-type mice | low in the Epac2-lacking mice compared with the wild-type mice

Second part, led by results:

Row | change in R/R0 value (FRET) [3] | IC50 (mouse Epac2) | SMILES | activation of Rap1 (Rap1 [1]) | activation of Rap1 (Rap1 [2]) | amount of GTP-bound Rap1 (activation of Rap1) (Rap1 [4]; [8]) | change in R/R0 value (FRET) [5] | insulin secretion, islets from Epac2-lacking mice compared with wild-type mice (pancreatic islets; 10 nM) | amount of GTP-bound Rap1 (activation of Rap1) (Rap1 [4]; concentrations higher than 100 nM) | glycemic control in a patient with neonatal diabetes [6] | insulin secretion, islets from Epac2-lacking mice compared with wild-type mice (pancreatic islets; 100 nM) | blood glucose concentration, Epac2-lacking mice compared with wild-type mice [7] | serum insulin concentration, Epac2-lacking mice compared with wild-type mice [7]
5 | decrease in R/R0 | – | CC(=O)c1ccc(S(=O)(=O)NC(=O)NC2CCCCC2)cc1 [acetohexamide] | found to activate Rap1 | activated no Rapt | increase the amount of GTP-bound Rap1 | – | – | – | – | – | – | –
6 | decrease in R/R0 | 0.025 µM | COc1ccc(Cl)cc1C(=O)NCCc1ccc(S(=O)(=O)NC(=O)NC2CCCCC2)cc1 [glibenclamide] | found to activate Rap1 | activated no Rapt | increase the amount of GTP-bound Rap1 | concentration-dependent decrease in R/R0 value | markedly low insulin secretion | failed to increase it | – | – | – | –
7 | decrease in R/R0 | – | Cc1cnc(C(=O)NCCc2ccc(S(=O)(=O)NC(=O)NC3CCCCC3)cc2)cn1 [glipizide] | found to activate Rap1 | activated no Rapt | increase the amount of GTP-bound Rap1 | – | – | – | – | – | – | –
